# Data reported in patent US20250268884A1, “Deuterated Domperidone for Treating Gastroparesis” (CinDome Pharma, Inc., priority 2022, published 2025).
# Columns and labels:
# [1] = system: adults with idiopathic or diabetic gastroparesis; test: ANMS GCSI-DD total and subscale scores, ANMS GCSI-DD manual scoring method, Phase 2a; type: in vivo, human; conditions: for ANMS GCSI-DD early satiety subscale score, Baseline / ANMS GCSI-DD early satiety subscale score, Change from baseline to Day 14/EOT / ANMS GCSI-DD early satiety subscale score, Day 14/EOT / ANMS GCSI-DD early satiety subscale score, Percent change from baseline to Day 14/EOT / ANMS GCSI-DD nausea subscale score, Baseline / ANMS GCSI-DD nausea subscale score, Change from baseline to Day 14/EOT / ANMS GCSI-DD nausea subscale score, Day 14/EOT / ANMS GCSI-DD nausea subscale score, Percent change from baseline to Day 14/EOT / ANMS GCSI-DD postprandial fullness subscale score, Baseline / ANMS GCSI-DD postprandial fullness subscale score, Change from baseline to Day 14/EOT / ANMS GCSI-DD postprandial fullness subscale score, Day 14/EOT / ANMS GCSI-DD postprandial fullness subscale score, Percent change from baseline to Day 14/EOT / ANMS GCSI-DD total score, Baseline / ANMS GCSI-DD total score, Day 14/EOT / ANMS GCSI-DD total score, change from baseline to Day 14/EOT / ANMS GCSI-DD total score, percent change from baseline to Day 14/EOT / ANMS GCSI-DD upper abdominal pain subscale score, Baseline / ANMS GCSI-DD upper abdominal pain subscale score, Change from baseline to Day 14/EOT / ANMS GCSI-DD upper abdominal pain subscale score, Day 14/EOT / ANMS GCSI-DD upper abdominal pain subscale score, Percent change from baseline to Day 14/EOT / ANMS GCSI-DD vomiting subscale score, Baseline / ANMS GCSI-DD vomiting subscale score, Change from baseline to Day 14/EOT / ANMS GCSI-DD vomiting subscale score, Day 14/EOT / ANMS GCSI-DD vomiting subscale score, Percent change from baseline to Day 14/EOT: mean, ITT Population
# From the text: As known in the art, the ANMS GCSI-DD covers 5 core relevant symptoms of gastroparesis: nausea, early satiety, postprandial fullness, upper abdominal pain and vomiting. Bloating is included as an exploratory symptom. Symptoms are rated on a severity numeric response scale from 0 (none) to 4 (very severe). Vomiting is captured on a frequency response scale and scored as follows: 0 for no episodes, 1 for one episode, 2 for 2 episodes, 3 for 3 episodes, and 4 for 4 or more episodes. In some embodiments, subjects recall symptoms over the previous 24 hours and completes the ANMS GCSI-DD patient-reported symptom questionnaire. In certain embodiments, the total ANMS GCSI-DD score is calculated as the mean of the 3 subscale scores for severity of nausea/vomiting, postprandial fullness/early satiety, and bloating. See, e.g., “The Use Manual for the ANMS GCSI-DD,” American Neurogastroenterology and Motility Society Gastroparesis Cardinal Symptom Index Daily Diary, 2018; https://www.fda.gov/media/125038/download. In other embodiments, the total ANMS GCSI-DD score is calculated using the ‘manual’ scoring method. The ANMS GCSI-DD manual scoring method is generated by summing the scores on each of the five symptom items (nausea, early satiety, postprandial fullness, upper abdominal pain, and number of vomiting episodes) and then dividing by 5, that is the number of items within the gastroparesis related symptom score. […] The ANMS GCSI-DD gastroparesis symptom daily score can range from 0 to 4. High scores on the ANMS GCSI-DD reflect greater symptom severity. See, e.g., “User Manuel for the ANMS GCSI-DD,” Federal Drug Administration at https://www.fda.gov/media/125038/download, which is hereby incorporated by reference.
# The severity scores of 4 gastroparesis-related symptoms (nausea, early satiety, postprandial fullness, upper abdominal pain) range from 0-none to 4-very severe. The vomiting score assesses the number of vomiting episodes during the day, capped at a maximum of 4; thus, the scores for vomiting range from 0 (no episodes of vomiting) to 4 (4 or more episodes of vomiting). Vomiting frequency is scored as 0 episodes, 1 episode, 2 episodes, 3 episodes, or 4 or more episodes (capped as 4).
# Table 11 presents the ANMS GCSI-DD total and subscale scores and change and percent change from baseline for the ITT Population using the ANMS GC SI-DD Manual scoring method. […] Subjects receiving placebo also experienced decreases in ANMS GCSI-DD total and subscale scores.
# healthy subjects = conditions: in vivo
# Method: Categorical T-wave morphology analysis and measurement of PR and QRS intervals were fully performed manually using a semi-automated process in 3 of the 10 ECG replicates at each time point.
# Treatment A: 30 mg CIN-102 [representing approximate steady-state therapeutic exposures in subject population]; Treatment B: 100 mg CIN-102 [representing potential steady-state supratherapeutic exposures in subjects]; Treatment C: 400 mg open-label moxifloxacin; Treatment D: CIN-102 placebo. A subject can appear in more than 1 category. The denominator (Total) is defined as the number of subjects or time points in the QT/QTc population for each treatment.
smiles,measurement,setting,value
"[2H]c1c([2H])c([2H])c2c([nH]c(=O)n2CCCN2CCC(n3c(=O)[nH]c4cc(Cl)ccc43)CC2)c1[2H] [Deudomperidone, 1-{3-[4-(5-chloro-2-oxo-2,3-dihydro-1H-1,3-benzodiazol-1-yl)piperidin-1yl]propyl}-2,3-dihydro(4,5,6,7-D4)-1H-1,3-benzodiazol-2-one]","ANMS GCSI-DD early satiety subscale score, Baseline",[1]; 5 mg BID,2.63
same,"ANMS GCSI-DD early satiety subscale score, Change from baseline to Day 14/EOT",[1]; 5 mg BID,−0.85
same,"ANMS GCSI-DD early satiety subscale score, Day 14/EOT",[1]; 5 mg BID,1.78
same,"ANMS GCSI-DD early satiety subscale score, Percent change from baseline to Day 14/EOT",[1]; 5 mg BID,−30.65%
same,"ANMS GCSI-DD nausea subscale score, Baseline",[1]; 5 mg BID,2.59
same,"ANMS GCSI-DD nausea subscale score, Change from baseline to Day 14/EOT",[1]; 5 mg BID,−0.93
same,"ANMS GCSI-DD nausea subscale score, Day 14/EOT",[1]; 5 mg BID,1.67
same,"ANMS GCSI-DD nausea subscale score, Percent change from baseline to Day 14/EOT",[1]; 5 mg BID,−41.32%
same,"ANMS GCSI-DD postprandial fullness subscale score, Baseline",[1]; 5 mg BID,2.93
same,"ANMS GCSI-DD postprandial fullness subscale score, Change from baseline to Day 14/EOT",[1]; 5 mg BID,−0.70
same,"ANMS GCSI-DD postprandial fullness subscale score, Day 14/EOT",[1]; 5 mg BID,2.22
same,"ANMS GCSI-DD postprandial fullness subscale score, Percent change from baseline to Day 14/EOT",[1]; 5 mg BID,−26.11%
same,"ANMS GCSI-DD total score, Baseline",[1]; 5 mg BID,2.16
same,"ANMS GCSI-DD total score, Day 14/EOT",[1]; 5 mg BID,1.47
same,"ANMS GCSI-DD total score, change from baseline to Day 14/EOT",[1]; 5 mg BID,−0.69
same,"ANMS GCSI-DD total score, percent change from baseline to Day 14/EOT",[1]; 5 mg BID,−35.01%
same,"ANMS GCSI-DD upper abdominal pain subscale score, Baseline",[1]; 5 mg BID,2.19
same,"ANMS GCSI-DD upper abdominal pain subscale score, Change from baseline to Day 14/EOT",[1]; 5 mg BID,−0.85
same,"ANMS GCSI-DD upper abdominal pain subscale score, Day 14/EOT",[1]; 5 mg BID,1.33
same,"ANMS GCSI-DD upper abdominal pain subscale score, Percent change from baseline to Day 14/EOT",[1]; 5 mg BID,−43.15%
same,"ANMS GCSI-DD vomiting subscale score, Baseline",[1]; 5 mg BID,0.44
same,"ANMS GCSI-DD vomiting subscale score, Change from baseline to Day 14/EOT",[1]; 5 mg BID,−0.11
same,"ANMS GCSI-DD vomiting subscale score, Day 14/EOT",[1]; 5 mg BID,0.33
same,"ANMS GCSI-DD vomiting subscale score, Percent change from baseline to Day 14/EOT",[1]; 5 mg BID,−64.00%
same,"ANMS GCSI-DD early satiety subscale score, Baseline",[1]; 10 mg BID,2.67
same,"ANMS GCSI-DD early satiety subscale score, Change from baseline to Day 14/EOT",[1]; 10 mg BID,−1.08
same,"ANMS GCSI-DD early satiety subscale score, Day 14/EOT",[1]; 10 mg BID,1.62
same,"ANMS GCSI-DD early satiety subscale score, Percent change from baseline to Day 14/EOT",[1]; 10 mg BID,−40.56%
same,"ANMS GCSI-DD nausea subscale score, Baseline",[1]; 10 mg BID,2.52
same,"ANMS GCSI-DD nausea subscale score, Change from baseline to Day 14/EOT",[1]; 10 mg BID,−1.20
same,"ANMS GCSI-DD nausea subscale score, Day 14/EOT",[1]; 10 mg BID,1.34
same,"ANMS GCSI-DD nausea subscale score, Percent change from baseline to Day 14/EOT",[1]; 10 mg BID,−48.88%
same,"ANMS GCSI-DD postprandial fullness subscale score, Baseline",[1]; 10 mg BID,3.01
same,"ANMS GCSI-DD postprandial fullness subscale score, Change from baseline to Day 14/EOT",[1]; 10 mg BID,−1.24
same,"ANMS GCSI-DD postprandial fullness subscale score, Day 14/EOT",[1]; 10 mg BID,1.79
same,"ANMS GCSI-DD postprandial fullness subscale score, Percent change from baseline to Day 14/EOT",[1]; 10 mg BID,−41.52%
same,"ANMS GCSI-DD total score, Baseline",[1]; 10 mg BID,2.14
same,"ANMS GCSI-DD total score, Day 14/EOT",[1]; 10 mg BID,1.17
same,"ANMS GCSI-DD total score, change from baseline to Day 14/EOT",[1]; 10 mg BID,−0.98
same,"ANMS GCSI-DD total score, percent change from baseline to Day 14/EOT",[1]; 10 mg BID,−44.07%
same,"ANMS GCSI-DD upper abdominal pain subscale score, Baseline",[1]; 10 mg BID,1.79
same,"ANMS GCSI-DD upper abdominal pain subscale score, Change from baseline to Day 14/EOT",[1]; 10 mg BID,−0.80
same,"ANMS GCSI-DD upper abdominal pain subscale score, Day 14/EOT",[1]; 10 mg BID,0.97
same,"ANMS GCSI-DD upper abdominal pain subscale score, Percent change from baseline to Day 14/EOT",[1]; 10 mg BID,−50.43%
same,"ANMS GCSI-DD vomiting subscale score, Baseline",[1]; 10 mg BID,0.71
same,"ANMS GCSI-DD vomiting subscale score, Change from baseline to Day 14/EOT",[1]; 10 mg BID,−0.59
same,"ANMS GCSI-DD vomiting subscale score, Day 14/EOT",[1]; 10 mg BID,0.14
same,"ANMS GCSI-DD vomiting subscale score, Percent change from baseline to Day 14/EOT",[1]; 10 mg BID,−71.73%
same,"ANMS GCSI-DD early satiety subscale score, Baseline",[1]; 20 mg QD,2.64
same,"ANMS GCSI-DD early satiety subscale score, Change from baseline to Day 14/EOT",[1]; 20 mg QD,−1.44
same,"ANMS GCSI-DD early satiety subscale score, Day 14/EOT",[1]; 20 mg QD,1.20
same,"ANMS GCSI-DD early satiety subscale score, Percent change from baseline to Day 14/EOT",[1]; 20 mg QD,−54.88%
same,"ANMS GCSI-DD nausea subscale score, Baseline",[1]; 20 mg QD,2.67
same,"ANMS GCSI-DD nausea subscale score, Change from baseline to Day 14/EOT",[1]; 20 mg QD,−1.93
same,"ANMS GCSI-DD nausea subscale score, Day 14/EOT",[1]; 20 mg QD,0.73
same,"ANMS GCSI-DD nausea subscale score, Percent change from baseline to Day 14/EOT",[1]; 20 mg QD,−62.56%
same,"ANMS GCSI-DD postprandial fullness subscale score, Baseline",[1]; 20 mg QD,2.84
same,"ANMS GCSI-DD postprandial fullness subscale score, Change from baseline to Day 14/EOT",[1]; 20 mg QD,−1.31
same,"ANMS GCSI-DD postprandial fullness subscale score, Day 14/EOT",[1]; 20 mg QD,1.53
same,"ANMS GCSI-DD postprandial fullness subscale score, Percent change from baseline to Day 14/EOT",[1]; 20 mg QD,−45.50%
same,"ANMS GCSI-DD total score, Baseline",[1]; 20 mg QD,2.13
same,"ANMS GCSI-DD total score, Day 14/EOT",[1]; 20 mg QD,0.88
same,"ANMS GCSI-DD total score, change from baseline to Day 14/EOT",[1]; 20 mg QD,−1.25
same,"ANMS GCSI-DD total score, percent change from baseline to Day 14/EOT",[1]; 20 mg QD,−55.99%
same,"ANMS GCSI-DD upper abdominal pain subscale score, Baseline",[1]; 20 mg QD,1.96
same,"ANMS GCSI-DD upper abdominal pain subscale score, Change from baseline to Day 14/EOT",[1]; 20 mg QD,−1.09
same,"ANMS GCSI-DD upper abdominal pain subscale score, Day 14/EOT",[1]; 20 mg QD,0.87
same,"ANMS GCSI-DD upper abdominal pain subscale score, Percent change from baseline to Day 14/EOT",[1]; 20 mg QD,−41.03%
same,"ANMS GCSI-DD vomiting subscale score, Baseline",[1]; 20 mg QD,0.53
same,"ANMS GCSI-DD vomiting subscale score, Change from baseline to Day 14/EOT",[1]; 20 mg QD,−0.47
same,"ANMS GCSI-DD vomiting subscale score, Day 14/EOT",[1]; 20 mg QD,0.07
same,"ANMS GCSI-DD vomiting subscale score, Percent change from baseline to Day 14/EOT",[1]; 20 mg QD,−94.64%
same,"ANMS GCSI-DD total score and all subscale scores at Day 14/EOT, manual scoring","[1]; all deudomperidone treatment groups, placebo also decreased",decreased from baseline
same,PR or QRS outliers,healthy subjects,no PR or QRS outliers
same,treatment-emergent U waves,healthy subjects,no treatment-emergent U waves
